Assay results reported in patent publication US20110280940A1, “Di-Vanilloyl And Tri-Vanilloyl Derivatives For Use In Anti-Cancer Therapy” (priority 2008, published 2011).

Experiments:
U373-MG glioma cell line = assay: Cellular imaging (quantitative videomicroscopy), global growth ratio, U373; format: cell-based; conditions: Homo sapiens, 50 μM, 72 h, read-out: Global Grow Ratio Treated/Ct (GGR T/Ct) determined by Video Quantitative microscopy, U373
Text: (§1) As the MTT test is based on the mitochondria functions, we also investigated the effects of the di- and tri-vanilloyl derivatives according to the invention on cell proliferation, migration and morphology by means of a cellular imaging approach (Debeir et al., Cytometry 60:29-40, 2004; Debeir et al., IEEE Trans Med Imaging 24:697-711, 2005) either in the human U373-MG glioma cell line, which is apoptosis-resistant but autophagy-sensitive (Lefranc F et al., Neurosurgery 2008) and in the human A549 non-small-cell-lung cancer cell line, which is apoptosis-resistant and autophagy-resistant (Mijatovic T et al., Neoplasia 2006, May; 8(5):402-12).
(§2) Investigations have also been performed in human normal fibroblasts (WS1 and WI38—see Tables 4 and 5). Cellular imaging relied on the use of computer-assisted phase-contrast microscopy making possible to film the behaviour of living cells in culture dishes for several days.
(§3) Cells were seeded in a 25-cm^2 flask at a low density, treated or not with the vanilloyl-esters invention (at a concentration of 50 μM) and filmed thereafter for a period of 72 h. The experiment was conducted in quadruplicates (in duplicates for DLT-95 compounds).
(§4) The behaviour of the cells, in terms of morphology, growth and death were thus investigated. The effect on the overall growth was measured by counting the number of cells on the first (0 h) and the last image (72 h) of each film. The global growth ratio (GGR) was then deduced by dividing the number of cells on the last image by the number of cells on the first image. The ratio GGRtreated cells/GGRcontrol cells, was further calculated thereby obtaining a value that describes the effect of compounds of the present invention on the overall cell growth. The methodology is fully described and validated in Debeir et al., 2008, Exp Cell Res 314:2985-2998 and Mathieu et al., 2009, J Cell Mol Med, Feb. 20, 2009.
(§5) Illustrative pictures (time=0 h and 72 h) of glioblastoma and normal fibroblast cell line left untreated or treated with poly-vanillic compounds according to the invention (50 μM) are provided in FIG. 1 (U373 glioblastoma) and FIG. 2 (normal fibroblasts). The GGR parameter analyses confirmed the marked impairment of cell growth in both cancer cell lines of the poly-vanillic compounds according to the invention (Table 5).

[1] = system: PC-3 prostate cancer cells; assay: MTT colorimetric assay, overall cell growth, PC-3; format: cell-based, human; conditions: Homo sapiens, 72 hours of incubation, read-out: In Vitro IC50 Growth Inhibitory Values, PC-3
Text: (§6) The amount of formazan obtained at the end of the experiment, measured by means of a spectrophotometer, is directly proportional to the number of living cells. Optical density determination thus enabled a quantitative measurement of the effect of the investigated compounds as compared to the control condition (untreated cells) and/or to other reference compounds. Eleven human cancer cell lines and one mouse melanoma cell-line (B16F10) described in Table 2 were used in the following MTT tests. These cancer cell lines cover seven histological cancer types including prostate (PC3), glioma (Hs683, T98G, U373, melanoma (VM21, VM28), non-small-cell-lung (A549), breast (MCF-7), colon (LoVo) and oesophageal (OE21, OE33) cancers. […] Each cell line was seeded in its appropriate culture medium. The detailed experimental procedure was the following: after a 24-hour period of incubation at 37° C., the culture medium was replaced by 100 μl of fresh medium in which the tested compound was previously dissolved, at the following molar concentrations: 10^-8 […] and 10^-4 M. Each experiment was performed in sestuplicates (6 times). After 72 hours of incubation at 37° C. with (experimental conditions) or without (control condition) the compound to be tested, the medium was replaced by 100 μl MTT dissolved in RPMI (1640 without phenol red) at a concentration of 0.5 or 1 mg/ml. The micro-wells were subsequently incubated during 3 hours and a half at 37° C. and centrifuged at 1300 rpm during 10 minutes. MTT was removed and formazan crystals formed were dissolved in 100 μl DMSO. The micro-wells were shaken for 5 minutes and read on a spectrophotometer at wavelengths of 570 nm (maximal formazan absorbance). For each experimental condition, the mean optical density was calculated, allowing the determination of the percentage of remaining living cells in comparison to the control. […] The origin of all the cell lines we used, along with their biological characteristics, and the validation procedures of the MTT colorimetric assay as employed here are fully detailed in Van Quaquebeke et al., 2005, J Med Chem 48:849-856; […]

[2] = system: A549 non-small-cell-lung cancer cell line; assay: Cellular imaging (quantitative videomicroscopy), global growth ratio, A549; format: cell-based; conditions: Homo sapiens, 72 h, read-out: Global Grow Ratio Treated/Ct (GGR T/Ct) determined by Video Quantitative microscopy, A549
Text: as §1, §2, §3, §4, §5

VM21 melanoma cells = assay: MTT colorimetric assay, overall cell growth, VM21; format: cell-based, human; conditions: Homo sapiens; MTT, 72 hours of incubation; read-out: In Vitro IC50 Growth Inhibitory Values, VM21
Text: as §6

[3] = system: Eleven human cancer cell lines; assay: MTT colorimetric assay, across the eleven human cancer cell lines; format: cell-based; conditions: mean ± SEM over the 11 human cancer cell lines, MTT, 72 hours; read-out: In Vitro IC50 Growth Inhibitory Values, m ± SEM
Text: as §6

VM48 melanoma cells = assay: MTT colorimetric assay, overall cell growth, VM48; format: cell-based, human; conditions: Homo sapiens; MTT, 72 hours of incubation; read-out: In Vitro IC50 Growth Inhibitory Values, VM48
[4] = system: cancer cells versus normal fibroblasts; assay: Anti-proliferative, anti-migratory and anti-kinase effects, cancer cells versus normal fibroblasts; format: cell-based, human; conditions: anti-proliferative
Text: The compounds of the invention were subsequently evaluated for their 1) anti-proliferative effect (by means of the colorimetric MTT assay), 2) pro-autophagic and pro-apoptotic effect (by means of flow cytometry analyses), and 3) anti-migratory effect (by means of quantitative videomicroscopy), in the following human cancer cell-lines: a) U373, T98G and Hs683 glioblastoma cells, b) VM21 and VM48 melanoma cells, c) PC-3 prostate cancer cells, d) MCF-7 breast cancer cells, e) LoVo colon cancer cells, f) OE21 oesophageal cancer cells, and g) A549 NSCLC cancer cells, as well as in human WS1 and WI38 normal fibroblasts (i.e. non-cancer cells).
The best current hits, DLT12 and DLT4, display anti-proliferative, anti-migratory effects and anti-kinase effects which are ˜10 times more pronounced in cancer cells than in normal fibroblasts. […] FIG. 1 illustrates the data obtained with respect to the human U373 glioblastoma model, while FIG. 2 illustrates the data obtained in human normal fibroblasts. […] DLT-95 and its derivatives DLT-95-F and DLT-95-Cl were also shown to have a significant effect on the proliferation 7 different human cancer cell-lines.

[5] = system: OE33 oesophageal cancer cells; assay: MTT colorimetric assay, overall cell growth, OE33; format: cell-based, human; conditions: Homo sapiens, OE33, 72 hours of incubation, read-out: In Vitro IC50 Growth Inhibitory Values, OE33
Text: as §6

[6] = system: MCF-7 breast cancer cells; assay: MTT colorimetric assay, overall cell growth, MCF-7; format: cell-based, human; conditions: Homo sapiens, MCF7, 72 hours of incubation, read-out: In Vitro IC50 Growth Inhibitory Values, MCF-7
Text: as §6

[7] = system: B16F10 melanoma cell-line; assay: MTT colorimetric assay, overall cell growth, B16F10; format: cell-based, mouse; conditions: Mus musculus, B16-F10, 72 hours of incubation, read-out: In Vitro IC50 Growth Inhibitory Values, B16F10
Text: as §6

U373 glioblastoma cells = assay: MTT colorimetric assay, overall cell growth, U373; format: cell-based, human; conditions: Homo sapiens, U373 MG, 72 hours of incubation, read-out: In Vitro IC50 Growth Inhibitory Values, U373
Text: as §6

LoVo colon cancer cells = assay: MTT colorimetric assay, overall cell growth, LoVo; format: cell-based, human; conditions: Homo sapiens, LoVo, 72 hours of incubation, read-out: In Vitro IC50 Growth Inhibitory Values, LoVo
Text: as §6

T98G glioma cells = assay: MTT colorimetric assay, overall cell growth, T98G; format: cell-based, human; conditions: Homo sapiens, T98G, 72 hours of incubation, read-out: In Vitro IC50 Growth Inhibitory Values, T98G
Text: as §6

[8] = system: A549 non-small-cell-lung cancer cells; assay: MTT colorimetric assay, overall cell growth, A549; format: cell-based, human; conditions: Homo sapiens, A549, 72 hours of incubation, read-out: In Vitro IC50 Growth Inhibitory Values, A549
Text: as §6

[9] = system: OE21 oesophageal cancer cells; assay: MTT colorimetric assay, overall cell growth, OE21; format: cell-based, human; conditions: Homo sapiens, OE21, 72 hours of incubation, read-out: In Vitro IC50 Growth Inhibitory Values, OE21
Text: as §6

Hs683 glioma cells = assay: MTT colorimetric assay, overall cell growth, Hs683; format: cell-based, human; conditions: Homo sapiens, Hs 683, 72 hours of incubation, read-out: In Vitro IC50 Growth Inhibitory Values, Hs683
Text: as §6

SMILES	IC50 [1] [µM]	IC50 (VM21 melanoma cells) [µM]	IC50 [3] [µM]	IC50 (VM48 melanoma cells) [µM]	IC50 [5] [µM]	IC50 [6] [µM]	IC50 [7] [µM]	IC50 (U373 glioblastoma cells) [µM]	IC50 (LoVo colon cancer cells) [µM]	IC50 (T98G glioma cells) [µM]	IC50 [8] [µM]	IC50 [9] [µM]	IC50 (Hs683 glioma cells) [µM]	activity at 50 µM (U373-MG glioma cell line) [%]	activity at 50 µM [2] [%]	effects more pronounced in cancer cells than in normal fibroblasts [4] [times]
COc1cc(C(=O)OCCCCCOC(=O)c2ccc(O)c(OC)c2)ccc1O [DLT3, Pentane-1,5-diyl bis-(4-hydroxy-3-methoxybenzoate)]	> 100	> 100	> 100	> 100	–	–	–	–	–	–	–	–	–	70	90	–
COc1cc(C(=O)O[C@@H]2CCCC[C@H]2OC(=O)c2ccc(O)c(OC)c2)ccc1O [DLT8, R,R-trans-cyclohexane-1,2-diyl bis-(4-hydroxy-3-methoxybenzoate)]	77	77	> 100	72	77	75	59	53	64	> 100	76	45	> 100	50	50	–
COc1cc(C(=O)OC2CCCC[C@@H]2OC(=O)c2ccc(O)c(OC)c2)ccc1O (stereo partly drawn) [DLT7, S,S-trans-cyclohexane-1,2-diyl bis-(4-hydroxy-3-methoxybenzoate)]	59	35	47 ± 4	36	66	47	49	20	44	70	43	41	57	20	20	–

The next lines start with results.

IC50 [1] [µM]	IC50 (VM21 melanoma cells) [µM]	IC50 [3] [µM]	IC50 (VM48 melanoma cells) [µM]	IC50 [5] [µM]	IC50 [6] [µM]	IC50 [7] [µM]	IC50 (U373 glioblastoma cells) [µM]	IC50 (LoVo colon cancer cells) [µM]	IC50 (T98G glioma cells) [µM]	IC50 [8] [µM]	IC50 [9] [µM]	IC50 (Hs683 glioma cells) [µM]	SMILES	activity at 50 µM (U373-MG glioma cell line) [%]	activity at 50 µM [2] [%]	effects more pronounced in cancer cells than in normal fibroblasts [4] [times]
–	32	46	38	–	–	–	–	–	–	–	–	–	COc1cc(C(=O)OCCCCCCCOC(=O)c2ccc(O)c(OC)c2)ccc1O [DLT12, Heptane-1,7-diyl bis-(4-hydroxy-3-methoxybenzoate)]	20	20	~10
35	44	48 ± 3	57	–	–	–	43	–	76	–	–	49	COc1cc(C(=O)O[C@H]2CCCC[C@H]2OC(=O)c2ccc(O)c(OC)c2)ccc1O [DLT9, cis-cyclohexane-1,2-diyl bis-(4-hydroxy-3-methoxybenzoate)]	20	20	–
